From ChEMBL document CHEMBL5291721, “A preclinical secondary pharmacology resource illuminates target-adverse drug reaction associations of marketed drugs” (Nat Commun, 2023) come the findings set out here.

Test [1] deals with T1, 5-hydroxytryptamine receptor 2C (Homo sapiens, UniProt P28335).
T1 sequence (P28335 whole entry): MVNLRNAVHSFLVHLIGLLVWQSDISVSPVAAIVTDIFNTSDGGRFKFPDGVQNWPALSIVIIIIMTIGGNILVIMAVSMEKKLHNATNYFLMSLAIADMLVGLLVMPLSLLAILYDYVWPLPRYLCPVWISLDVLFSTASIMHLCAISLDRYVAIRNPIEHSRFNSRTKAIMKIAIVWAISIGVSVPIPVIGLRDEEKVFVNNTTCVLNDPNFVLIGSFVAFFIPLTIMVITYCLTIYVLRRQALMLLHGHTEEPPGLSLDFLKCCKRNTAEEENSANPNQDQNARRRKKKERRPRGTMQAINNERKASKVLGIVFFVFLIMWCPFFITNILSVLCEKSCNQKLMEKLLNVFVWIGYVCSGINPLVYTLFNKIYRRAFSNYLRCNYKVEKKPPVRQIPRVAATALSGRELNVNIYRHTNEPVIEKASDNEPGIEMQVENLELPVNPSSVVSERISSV

For test [2], the target named is T2, Progesterone receptor (Homo sapiens, UniProt P06401).
T2 sequence (P06401 whole entry): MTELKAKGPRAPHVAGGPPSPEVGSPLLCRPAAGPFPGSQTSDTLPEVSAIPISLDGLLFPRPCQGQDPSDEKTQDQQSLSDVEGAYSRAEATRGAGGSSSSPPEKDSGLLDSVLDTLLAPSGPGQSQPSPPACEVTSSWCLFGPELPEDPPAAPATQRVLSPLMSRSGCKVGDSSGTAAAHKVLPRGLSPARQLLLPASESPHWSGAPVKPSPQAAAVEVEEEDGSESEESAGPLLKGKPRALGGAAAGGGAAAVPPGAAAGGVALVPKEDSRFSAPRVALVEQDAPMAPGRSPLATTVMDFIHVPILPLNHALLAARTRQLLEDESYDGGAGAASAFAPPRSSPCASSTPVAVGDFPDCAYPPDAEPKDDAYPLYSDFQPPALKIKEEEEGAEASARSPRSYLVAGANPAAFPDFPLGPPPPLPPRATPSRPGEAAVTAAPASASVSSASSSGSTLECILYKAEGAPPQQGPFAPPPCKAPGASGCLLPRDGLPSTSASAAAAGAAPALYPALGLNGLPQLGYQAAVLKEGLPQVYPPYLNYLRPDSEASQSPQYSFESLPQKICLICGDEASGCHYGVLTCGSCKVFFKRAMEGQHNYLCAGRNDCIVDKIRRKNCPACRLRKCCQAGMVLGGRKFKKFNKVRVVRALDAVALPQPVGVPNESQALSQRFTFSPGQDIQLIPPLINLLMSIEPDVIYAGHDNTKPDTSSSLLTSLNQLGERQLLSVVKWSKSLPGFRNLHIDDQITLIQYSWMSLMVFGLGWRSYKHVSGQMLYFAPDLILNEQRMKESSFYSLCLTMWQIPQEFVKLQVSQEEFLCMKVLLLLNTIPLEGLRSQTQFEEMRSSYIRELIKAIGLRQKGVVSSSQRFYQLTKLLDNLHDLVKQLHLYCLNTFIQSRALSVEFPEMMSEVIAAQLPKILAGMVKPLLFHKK
In kind it is functional.

Test [3] has as its target T3, Alpha-2B adrenergic receptor (Homo sapiens, UniProt P18089).
T3 sequence (P18089 whole entry): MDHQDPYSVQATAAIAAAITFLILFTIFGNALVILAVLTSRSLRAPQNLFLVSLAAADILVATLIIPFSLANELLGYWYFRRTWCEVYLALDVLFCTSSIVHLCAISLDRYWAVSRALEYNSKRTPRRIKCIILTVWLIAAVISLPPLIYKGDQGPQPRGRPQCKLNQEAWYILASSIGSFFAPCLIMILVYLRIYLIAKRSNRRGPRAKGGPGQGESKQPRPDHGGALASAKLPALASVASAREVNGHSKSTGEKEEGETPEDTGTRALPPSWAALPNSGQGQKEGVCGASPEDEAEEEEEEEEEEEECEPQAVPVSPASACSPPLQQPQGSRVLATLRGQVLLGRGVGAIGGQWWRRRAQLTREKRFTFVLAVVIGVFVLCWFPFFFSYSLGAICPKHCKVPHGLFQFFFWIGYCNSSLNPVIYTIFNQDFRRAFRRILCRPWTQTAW

In test [4] the target is T4, 5-hydroxytryptamine receptor 1A (Homo sapiens, UniProt P08908).
T4 sequence (P08908 whole entry): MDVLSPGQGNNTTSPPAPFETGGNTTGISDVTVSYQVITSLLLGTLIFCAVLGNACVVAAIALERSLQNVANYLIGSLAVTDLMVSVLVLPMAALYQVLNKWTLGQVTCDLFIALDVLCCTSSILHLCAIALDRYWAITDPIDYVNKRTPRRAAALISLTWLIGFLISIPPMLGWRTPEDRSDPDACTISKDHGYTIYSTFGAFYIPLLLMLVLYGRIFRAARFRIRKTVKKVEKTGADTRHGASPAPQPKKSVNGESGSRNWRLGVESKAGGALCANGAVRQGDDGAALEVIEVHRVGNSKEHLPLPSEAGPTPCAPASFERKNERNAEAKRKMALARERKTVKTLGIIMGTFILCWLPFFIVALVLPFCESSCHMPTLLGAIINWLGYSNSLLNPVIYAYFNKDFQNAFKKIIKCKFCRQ
In kind it is functional, cell-based.

Test [5] concerns the target T5, Adenosine receptor A1 (Homo sapiens, UniProt P30542).
T5 sequence (P30542 whole entry): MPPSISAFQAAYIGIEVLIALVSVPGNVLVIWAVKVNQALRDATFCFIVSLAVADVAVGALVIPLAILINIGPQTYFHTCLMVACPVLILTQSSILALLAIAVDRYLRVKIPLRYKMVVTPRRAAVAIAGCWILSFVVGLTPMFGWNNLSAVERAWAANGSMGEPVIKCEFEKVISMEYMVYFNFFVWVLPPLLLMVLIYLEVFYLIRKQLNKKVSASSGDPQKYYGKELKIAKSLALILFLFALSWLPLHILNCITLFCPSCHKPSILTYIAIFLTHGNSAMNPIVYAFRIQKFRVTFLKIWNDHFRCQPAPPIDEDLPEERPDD

Test [6] has as its target Beta-1 adrenergic receptor (Homo sapiens, UniProt P08588). In kind it is functional.
Test [7] deals with Histamine H1 receptor (Homo sapiens, UniProt P35367).
Test [8] concerns the target T2, Progesterone receptor. In kind it is functional. The source holds these as a separate data set.

By AC50 is commonly meant the midpoint of the concentration-response curve, whichever way the signal moves.
Further: assay procedure not described here.

Chain of Beta-1 adrenergic receptor (P08588 whole entry): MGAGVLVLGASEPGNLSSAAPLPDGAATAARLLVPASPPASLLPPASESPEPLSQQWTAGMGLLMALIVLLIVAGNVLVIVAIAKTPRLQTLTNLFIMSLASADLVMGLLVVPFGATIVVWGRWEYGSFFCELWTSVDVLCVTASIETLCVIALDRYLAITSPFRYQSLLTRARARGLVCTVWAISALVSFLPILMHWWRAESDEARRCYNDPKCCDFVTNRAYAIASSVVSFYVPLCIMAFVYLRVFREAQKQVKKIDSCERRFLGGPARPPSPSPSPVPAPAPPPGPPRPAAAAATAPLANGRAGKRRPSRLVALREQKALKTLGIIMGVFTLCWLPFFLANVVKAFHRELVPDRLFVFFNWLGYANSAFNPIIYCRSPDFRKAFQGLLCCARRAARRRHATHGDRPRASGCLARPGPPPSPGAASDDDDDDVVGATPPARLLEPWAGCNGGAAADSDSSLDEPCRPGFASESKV
Chain of Histamine H1 receptor (P35367 whole entry): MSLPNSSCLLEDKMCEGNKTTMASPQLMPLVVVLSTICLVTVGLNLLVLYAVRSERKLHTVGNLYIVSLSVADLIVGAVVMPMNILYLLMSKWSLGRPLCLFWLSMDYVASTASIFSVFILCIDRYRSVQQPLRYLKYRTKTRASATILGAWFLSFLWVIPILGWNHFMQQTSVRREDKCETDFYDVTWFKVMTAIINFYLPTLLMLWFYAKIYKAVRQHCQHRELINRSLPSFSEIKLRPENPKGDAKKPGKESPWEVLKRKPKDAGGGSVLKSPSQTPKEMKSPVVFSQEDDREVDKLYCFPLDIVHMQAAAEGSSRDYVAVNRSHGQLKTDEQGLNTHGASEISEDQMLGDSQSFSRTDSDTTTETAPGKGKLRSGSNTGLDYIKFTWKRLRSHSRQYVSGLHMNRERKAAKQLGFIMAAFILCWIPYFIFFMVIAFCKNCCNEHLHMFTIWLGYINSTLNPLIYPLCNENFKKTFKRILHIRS

On to `CCC(=O)OCC(=O)[C@@]1(OC(=O)CC)[C@@H](C)C[C@H]2[C@@H]3CCC4=CC(=O)C=C[C@]4(C)[C@@]3(F)[C@@H](O)C[C@@]21C` [BETAMETHASONE DIPROPIONATE], for which the AC50 in test [1] is more than 30 µM; in test [2] it was 0.3 µM; in test [3] it was more than 30 µM; in test [4], more than 30 µM; in test [5], more than 30 µM; in test [6] it was more than 30 µM. The AC50 in test [7] was more than 30 µM.
Turning to `CCCC(C)(COC(N)=O)COC(=O)NC(C)C` (centres undefined) [CARISOPRODOL], the AC50 is more than 30 µM in test [1]; more than 10 µM in test [3]; more than 10 µM in test [4]; more than 30 µM in test [5]; more than 10 µM in test [6]; more than 10 µM in test [7].
Consider `C=CC1=C(C(=O)O)N2C(=O)[C@@H](NC(=O)/C(=N\OCC(=O)O)c3csc(N)n3)[C@H]2SC1` [CEFIXIME], for which the AC50 in test [2], in test [4], in test [5], in test [6], in test [8] and in test [7] was more than 30 µM each time.
Turning to `N[C@H](Cc1cc(I)c(Oc2cc(I)c(O)c(I)c2)c(I)c1)C(=O)O` [DEXTROTHYROXINE], the AC50 is more than 30 µM in test [1]; more than 10 µM in test [3]; more than 10 µM in test [4]; more than 30 µM in test [5]; more than 10 µM in test [6]; more than 10 µM in test [7].
For the compound `Clc1ccc2c(c1)C(c1ccccc1)=NCc1nncn1-2` [ESTAZOLAM], the AC50 in test [1] is more than 30 µM; in test [3], more than 10 µM; in test [4], more than 10 µM; in test [5] it was more than 30 µM; in test [6] it was more than 10 µM; in test [7], more than 10 µM.
For the compound `O=C(O)c1ccccc1Nc1cccc(C(F)(F)F)c1` [FLUFENAMIC ACID], the AC50 was 4.6 µM in test [1]; more than 10 µM in test [3]; more than 30 µM in test [4]; more than 30 µM in test [5]; more than 10 µM in test [6]; 0.082 µM in test [7].
Consider `C#C[C@]1(O)CC[C@H]2[C@@H]3CCC4=CC(=O)CCC4=C3C=C[C@@]21CC` [GESTRINONE], for which the AC50 in test [1] is more than 30 µM; in test [2] it was 0.1 µM; in test [3] it was more than 30 µM; in test [4], more than 30 µM; in test [5], more than 30 µM; in test [6] it was more than 30 µM. In test [7], the AC50 is more than 30 µM.
As for `CCCC[C@H](C)C[C@H](O)/C=C/[C@H]1[C@H](O)CC(=O)[C@@H]1CCCC/C=C/C(=O)O` [LIMAPROST], the AC50 in test [1], in test [2], in test [3], in test [5], in test [6] and in test [8] was more than 30 µM throughout. In addition, the AC50 in test [7] is more than 30 µM.
As to `CC#CCn1c(N2CCC[C@@H](N)C2)nc2c1c(=O)n(Cc1nc(C)c3ccccc3n1)c(=O)n2C` [LINAGLIPTIN], the AC50 in test [1] is more than 30 µM; in test [3], more than 10 µM; in test [5], more than 30 µM; in test [6], more than 10 µM; in test [7], more than 10 µM.
In the case of `O=C1CN=C(c2ccccc2)c2cc(Cl)ccc2N1` [NORDAZEPAM], the AC50 was more than 30 µM in test [1]; more than 10 µM in test [3]; more than 10 µM in test [4]; more than 30 µM in test [5]; more than 10 µM in test [6]; more than 10 µM in test [7].
Take `CC(CCc1ccccc1)NC(C)C(O)c1ccc(O)cc1` (centres undefined) [NYLIDRIN]: the AC50 was more than 30 µM in test [1]; 0.73 µM in test [3]; more than 10 µM in test [4]; more than 30 µM in test [5]; 3.95 µM in test [6]; more than 10 µM in test [7].
On to `O=C1Nc2ccc(Cl)cc2C(c2ccccc2)=NC1O` (centres undefined) [OXAZEPAM], for which the AC50 in test [1] was more than 30 µM; in test [3] it was more than 10 µM; in test [4], more than 10 µM; in test [5], more than 30 µM; in test [6], more than 10 µM; in test [7], more than 10 µM.
As for `CC(=O)c1ccc2c(c1)N(CCCN1CCC(CCO)CC1)c1ccccc1S2` [PIPERACETAZINE], the AC50 in test [1] was 11 µM; in test [2] it was more than 30 µM; in test [3] it was 0.068 µM; in test [4], more than 30 µM; in test [5], more than 30 µM; in test [6] it was more than 30 µM. In addition, the AC50 in test [7] came out at 0.034 µM.
Turning to `Cc1cc2nc3c(=O)[nH]c(=O)nc-3n(C[C@H](O)[C@H](O)[C@H](O)COP(=O)(O)O)c2cc1C` [RIBOFLAVIN 5'-PHOSPHATE], the AC50 in test [1] is 24 µM; in test [2], more than 30 µM; in test [3], more than 30 µM; in test [5] it was more than 30 µM; in test [6] it was more than 30 µM; in test [7] it was more than 30 µM.
Regarding `COc1cc2c(Nc3ccc(Br)cc3F)ncnc2cc1OCC1CCN(C)CC1` [VANDETANIB], the AC50 in test [1] is more than 30 µM; in test [2], more than 30 µM; in test [3], 0.682 µM; in test [4], more than 30 µM; in test [5], more than 30 µM; in test [6], more than 30 µM. In test [8], this compound showed an AC50 of more than 10 µM.
In the case of `N#C[C@@H]1CCCN1C(=O)CNC12CC3CC(CC(O)(C3)C1)C2` [VILDAGLIPTIN], the AC50 in test [1] was more than 30 µM; in test [3], more than 30 µM; in test [4] it was more than 30 µM; in test [5] it was more than 30 µM; in test [6], more than 10 µM; in test [7] it was more than 30 µM.
As for COLISTIN, the AC50 in test [1], in test [3], in test [4] and in test [7] was more than 30 µM in each case.
